Measured values from patent US8815893B2, “Hetarylaminonaphthyridines” (Merck Patent GmbH, priority 2010, dated 2014).

system: lung epithelial cell line Mv1Lu; test: Cellular assay for TGF-beta receptor I kinase inhibitors: elimination of TGF-beta-mediated growth inhibition (example 13); assay type: cell-based; settings: 48 h; Mv1Lu cells, 1 ng/ml TGF-beta, 0.5% FCS, two days, Crystal Violet staining; read-out: TβR activity (example 13)
Method: Cellular Assay for Testing TGF-Beta Receptor I Kinase Inhibitors
As an example, the ability of the inhibitors to eliminate TGF-beta-mediated growth inhibition was tested. Cells of the lung epithelial cell line Mv1Lu were sown in a defined cell density in a 96-well microtiter plate and cultivated overnight under standard conditions. Next day, the medium was replaced by medium which comprises 0.5% of FCS and 1 ng/ml of TGF-beta, and the test substances were added in defined concentrations, generally in the form of dilution series with 5 fold steps. The concentration of the solvent DMSO was constant at 0.5%. After a further two days, Crystal Violet staining of the cells was carried out. After extraction of the Crystal Violet from the fixed cells, the absorption was measured spectrophotometrically at 550 nm. It could be used as a quantitative measure of the adherent cells present and thus of the cell proliferation during the culture.

SMILES	IC50 [µM]
CN(C)CCNC(=O)c1cnccc1Nc1cc(-c2cc(Cl)ccc2F)nc2ncccc12 [compound 72]	< 0.1
Fc1ccc(Cl)cc1-c1cc(-n2ncc3cnccc32)c2cccnc2n1 [compound 73]	< 0.1
CS(=O)(=O)Nc1cc(Nc2cc(-c3cc(Cl)ccc3F)nc3ncccc23)ccn1 [compound 74]	1 to 10
Fc1ccc(Cl)cc1-c1cc(Cc2ccncc2)c2cccnc2n1 [compound 75]	> 10
Oc1nccc(Nc2cc(-c3cc(Cl)ccc3F)nc3ncccc23)n1 [compound 76]	1 to 10
Cc1cccc(-c2cc(-n3nc(C)c4cnccc43)c3cccnc3n2)n1 [compound 77]	1 to 10
OCc1cnccc1Nc1cc(-c2cc(F)ccc2F)nc2ncccc12 [compound 78]	< 0.1
CCOc1ccc(Cl)cc1-c1cc(Nc2ccnc(NC(C)=O)c2)c2cccnc2n1 [compound 79]	0.1 to 1
Cc1cccc(-c2cc(Nc3ccncc3Cl)c3cccnc3n2)n1 [compound 80]	< 0.1
Cc1cccc(-c2cc(Nc3ccncc3CO)c3cccnc3n2)n1 [compound 81]	0.1 to 1
O=C(CO)Nc1cc(Nc2cc(-c3cc(Cl)ccc3F)nc3ncccc23)ccn1 [compound 82]	< 0.1
Cc1cccc(-c2cc(Nc3ccnc(Cl)c3)c3cccnc3n2)n1 [compound 83]	1 to 10
Cc1cccc(-c2cc(Nc3cc(F)nc(N4CCOCC4)n3)c3cccnc3n2)n1 [compound 84]	> 10
Cc1cccc(-c2cc(Nc3ccnc(NC(N)=O)c3)c3cccnc3n2)n1 [compound 85]	0.1 to 1
Nc1cc(Nc2cc(-c3ccccc3F)nc3ncccc23)ncn1 [compound 86]	0.1 to 1
CC(C)(C)CC(=O)Nc1cc(Nc2cc(-c3cc(Cl)ccc3F)nc3ncccc23)ccn1 [compound 87]	< 0.1
CC(=O)Nc1cc(Nc2cc(-c3ccccc3F)nc3ncccc23)ncn1 [compound 88]	0.1 to 1
CC(=O)Nc1cc(Nc2cc(-c3cc(F)ccc3F)nc3ncccc23)ncn1 [compound 89]	< 0.1
CNc1nccc(Nc2cc(-c3cccc(C)n3)nc3ncccc23)n1 [compound 90]	0.1 to 1
CCCC(=O)Nc1cc(Nc2cc(-c3cc(Cl)ccc3F)nc3ncccc23)ccn1 [compound 91]	< 0.1
CC(C)C(=O)Nc1cc(Nc2cc(-c3cc(Cl)ccc3F)nc3ncccc23)ncn1 [compound 92]	< 0.1
CN1CCN(c2nccc(Nc3cc(-c4cc(Cl)ccc4F)nc4ncccc34)n2)CC1 [compound 93]	> 10
NCCC(=O)Nc1cc(Nc2cc(-c3cc(Cl)ccc3F)nc3ncccc23)ncn1 [compound 94]	< 0.1
CN1CCC(NC(=O)c2cnccc2Nc2cc(-c3cc(Cl)ccc3F)nc3ncccc23)CC1 [compound 95]	< 0.1

SMILES	IC50 [µM]
Fc1ccccc1-c1cc(-n2ccc3cncnc32)c2cccnc2n1 [compound 96]	1 to 10
Fc1ccc(Cl)cc1-c1cc(Nc2ccnc(-c3cccnc3)n2)c2cccnc2n1 [compound 97]	> 10
CC(=O)Nc1nccc(Nc2cc(-c3cc(Cl)ccc3F)nc3ncccc23)n1 [compound 98]	< 0.1
CC(C)NC(=O)c1cnccc1Nc1cc(-c2cc(Cl)ccc2F)nc2ncccc12 [compound 99]	< 0.1
Cc1nn(-c2cc(-c3cc(F)ccc3F)nc3ncccc23)c2ccncc12 [compound 100]	0.1 to 1
CC(C)(C)C(=O)Nc1cc(Nc2cc(-c3cc(Cl)ccc3F)nc3ncccc23)ncn1 [compound 101]	1 to 10
O=C(CCN1CCNCC1)Nc1cc(Nc2cc(-c3cc(Cl)ccc3F)nc3ncccc23)ncn1 [compound 102]	> 10
Fc1ccc(F)c(-c2cc(Nc3cc(Cl)ncn3)c3cccnc3n2)c1 [compound 103]	> 10
CC(C)(C)CC(=O)Nc1cc(Nc2cc(-c3cc(Cl)ccc3F)nc3ncccc23)ncn1 [compound 104]	< 0.1
CC(C)(C)CC(=O)Nc1cc(Nc2cc(-c3cc(F)ccc3F)nc3ncccc23)ncn1 [compound 105]	0.1 to 1
Nc1cc(Nc2cc(-c3cc(F)ccc3F)nc3ncccc23)ncn1 [compound 106]	0.1 to 1
CC(C)(N)CC(=O)Nc1cc(Nc2cc(-c3cc(F)ccc3F)nc3ncccc23)ncn1 [compound 107]	< 0.1
COC(=O)c1nccc2c1ccn2-c1cc(-c2cc(Cl)ccc2F)nc2ncccc12 [compound 108]	1 to 10
CC(C)(C)OC(=O)NCC(=O)Nc1cc(Nc2cc(-c3cc(Cl)ccc3F)nc3ncccc23)ncn1 [compound 109]	< 0.1
NCC(=O)Nc1cc(Nc2cc(-c3cc(Cl)ccc3F)nc3ncccc23)ncn1 [compound 110]	< 0.1
CN1CCC(C(=O)Nc2cc(Nc3cc(-c4cc(Cl)ccc4F)nc4ncccc34)ncn2)CC1 [compound 111]	< 0.1
CN(C)CC(=O)Nc1cc(Nc2cc(-c3cc(Cl)ccc3F)nc3ncccc23)ncn1 [compound 112]	< 0.1
CN1CCC(NC(=O)c2cnccc2Nc2cc(-c3cc(F)ccc3F)nc3ncccc23)CC1 [compound 113]	< 0.1
CC(C)(C)CC(=O)Nc1cc(Nc2cc(-c3ccccc3F)nc3ncccc23)ncn1 [compound 114]	0.1 to 1
CN1CCC(C(=O)Nc2cc(Nc3cc(-c4ccccc4F)nc4ncccc34)ncn2)CC1 [compound 115]	0.1 to 1
COC(=O)c1cc(Nc2cc(-c3cc(F)ccc3F)nc3ncccc23)ccn1 [compound 116]	> 10
CN1CCC(C(=O)Nc2cc(Nc3cc(-c4cc(F)ccc4F)nc4ncccc34)ncn2)CC1 [compound 117]	< 0.1
CNC(=O)c1cc(Nc2cc(-c3cc(F)ccc3F)nc3ncccc23)ccn1 [compound 118]	1 to 10

biological target: T1, GST-ALK5 (Homo sapiens, UniProt P36897); test: In-vitro (enzyme) kinase assay, 384-well flashplate (example 14); assay type: biochemical; settings: GST-ALK5, GST-SMAD2 substrate, 33P-ATP flashplate, 30° C. 45 min; IC50 classes; read-out: TβR activity (example 14)
T1 sequence (P36897 34-503): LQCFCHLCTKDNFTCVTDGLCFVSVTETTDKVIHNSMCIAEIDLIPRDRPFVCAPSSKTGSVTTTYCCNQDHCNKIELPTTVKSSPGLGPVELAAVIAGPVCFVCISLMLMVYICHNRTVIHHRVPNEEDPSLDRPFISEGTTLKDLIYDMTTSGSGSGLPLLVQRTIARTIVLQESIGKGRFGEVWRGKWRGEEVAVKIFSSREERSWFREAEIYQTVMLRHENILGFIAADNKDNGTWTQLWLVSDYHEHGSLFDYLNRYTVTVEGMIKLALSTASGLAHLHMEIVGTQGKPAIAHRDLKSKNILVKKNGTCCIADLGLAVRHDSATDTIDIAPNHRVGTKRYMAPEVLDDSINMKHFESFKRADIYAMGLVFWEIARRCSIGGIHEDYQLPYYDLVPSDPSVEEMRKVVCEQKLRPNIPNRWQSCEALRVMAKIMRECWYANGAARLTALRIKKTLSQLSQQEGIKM
Method: In-Vitro (Enzyme) Assay for Determination of the Efficacy of Inhibitors of the Inhibition of TGF-Beta-Mediated Effects
The kinase assay was carried out as 384-well flashplate assay. 31.2 nM of GST-ALK5, 439 nM of GST-SMAD2 and 3 mM of ATP (with 0.3 μCi of ^33P-ATP/well) were incubated in a total volume of 35 μl (20 mM of HEPES, 10 mM of MgCl2, 5 mM of MnCl2, 1 mM of DTT, 0.1% of BSA, pH 7.4) without or with test substance (5-10 concentrations) at 30° C. for 45 min. The reaction was stopped using 25 μl of 200 mM EDTA solution, filtered with suction at room temperature after 30 min, and the wells were washed with 3 times 100 μl of 0.9% NaCl solution. Radioactivity was measured in the TopCount. The IC50 values were calculated using RS1. Above and below, all temperatures were indicated in ° C.

SMILES	IC50 [µM]
CN(C)CCNC(=O)c1cnccc1Nc1cc(-c2cc(Cl)ccc2F)nc2ncccc12 [compound 72]	< 0.1
Fc1ccc(Cl)cc1-c1cc(-n2ncc3cnccc32)c2cccnc2n1 [compound 73]	< 0.1
CS(=O)(=O)Nc1cc(Nc2cc(-c3cc(Cl)ccc3F)nc3ncccc23)ccn1 [compound 74]	0.1 to 1
Fc1ccc(Cl)cc1-c1cc(Cc2ccncc2)c2cccnc2n1 [compound 75]	1 to 10
Oc1nccc(Nc2cc(-c3cc(Cl)ccc3F)nc3ncccc23)n1 [compound 76]	0.1 to 1
Cc1cccc(-c2cc(-n3nc(C)c4cnccc43)c3cccnc3n2)n1 [compound 77]	< 0.1
OCc1cnccc1Nc1cc(-c2cc(F)ccc2F)nc2ncccc12 [compound 78]	< 0.1
CCOc1ccc(Cl)cc1-c1cc(Nc2ccnc(NC(C)=O)c2)c2cccnc2n1 [compound 79]	0.1 to 1
Cc1cccc(-c2cc(Nc3ccncc3Cl)c3cccnc3n2)n1 [compound 80]	< 0.1
Cc1cccc(-c2cc(Nc3ccncc3CO)c3cccnc3n2)n1 [compound 81]	< 0.1
O=C(CO)Nc1cc(Nc2cc(-c3cc(Cl)ccc3F)nc3ncccc23)ccn1 [compound 82]	< 0.1
Cc1cccc(-c2cc(Nc3ccnc(Cl)c3)c3cccnc3n2)n1 [compound 83]	0.1 to 1
Cc1cccc(-c2cc(Nc3cc(F)nc(N4CCOCC4)n3)c3cccnc3n2)n1 [compound 84]	> 10
Cc1cccc(-c2cc(Nc3ccnc(NC(N)=O)c3)c3cccnc3n2)n1 [compound 85]	< 0.1
Nc1cc(Nc2cc(-c3ccccc3F)nc3ncccc23)ncn1 [compound 86]	< 0.1
CC(C)(C)CC(=O)Nc1cc(Nc2cc(-c3cc(Cl)ccc3F)nc3ncccc23)ccn1 [compound 87]	< 0.1
CC(=O)Nc1cc(Nc2cc(-c3ccccc3F)nc3ncccc23)ncn1 [compound 88]	< 0.1
CC(=O)Nc1cc(Nc2cc(-c3cc(F)ccc3F)nc3ncccc23)ncn1 [compound 89]	< 0.1
CNc1nccc(Nc2cc(-c3cccc(C)n3)nc3ncccc23)n1 [compound 90]	< 0.1
CCCC(=O)Nc1cc(Nc2cc(-c3cc(Cl)ccc3F)nc3ncccc23)ccn1 [compound 91]	< 0.1
CC(C)C(=O)Nc1cc(Nc2cc(-c3cc(Cl)ccc3F)nc3ncccc23)ncn1 [compound 92]	< 0.1
CN1CCN(c2nccc(Nc3cc(-c4cc(Cl)ccc4F)nc4ncccc34)n2)CC1 [compound 93]	> 10
NCCC(=O)Nc1cc(Nc2cc(-c3cc(Cl)ccc3F)nc3ncccc23)ncn1 [compound 94]	< 0.1
CN1CCC(NC(=O)c2cnccc2Nc2cc(-c3cc(Cl)ccc3F)nc3ncccc23)CC1 [compound 95]	< 0.1

SMILES	IC50 [µM]
Fc1ccccc1-c1cc(-n2ccc3cncnc32)c2cccnc2n1 [compound 96]	0.1 to 1
Fc1ccc(Cl)cc1-c1cc(Nc2ccnc(-c3cccnc3)n2)c2cccnc2n1 [compound 97]	1 to 10
CC(=O)Nc1nccc(Nc2cc(-c3cc(Cl)ccc3F)nc3ncccc23)n1 [compound 98]	< 0.1
CC(C)NC(=O)c1cnccc1Nc1cc(-c2cc(Cl)ccc2F)nc2ncccc12 [compound 99]	< 0.1
Cc1nn(-c2cc(-c3cc(F)ccc3F)nc3ncccc23)c2ccncc12 [compound 100]	< 0.1
CC(C)(C)C(=O)Nc1cc(Nc2cc(-c3cc(Cl)ccc3F)nc3ncccc23)ncn1 [compound 101]	0.1 to 1
O=C(CCN1CCNCC1)Nc1cc(Nc2cc(-c3cc(Cl)ccc3F)nc3ncccc23)ncn1 [compound 102]	> 10
Fc1ccc(F)c(-c2cc(Nc3cc(Cl)ncn3)c3cccnc3n2)c1 [compound 103]	0.1 to 1
CC(C)(C)CC(=O)Nc1cc(Nc2cc(-c3cc(Cl)ccc3F)nc3ncccc23)ncn1 [compound 104]	< 0.1
CC(C)(C)CC(=O)Nc1cc(Nc2cc(-c3cc(F)ccc3F)nc3ncccc23)ncn1 [compound 105]	< 0.1
Nc1cc(Nc2cc(-c3cc(F)ccc3F)nc3ncccc23)ncn1 [compound 106]	< 0.1
CC(C)(N)CC(=O)Nc1cc(Nc2cc(-c3cc(F)ccc3F)nc3ncccc23)ncn1 [compound 107]	< 0.1
COC(=O)c1nccc2c1ccn2-c1cc(-c2cc(Cl)ccc2F)nc2ncccc12 [compound 108]	0.1 to 1
CC(C)(C)OC(=O)NCC(=O)Nc1cc(Nc2cc(-c3cc(Cl)ccc3F)nc3ncccc23)ncn1 [compound 109]	< 0.1
NCC(=O)Nc1cc(Nc2cc(-c3cc(Cl)ccc3F)nc3ncccc23)ncn1 [compound 110]	< 0.1
CN1CCC(C(=O)Nc2cc(Nc3cc(-c4cc(Cl)ccc4F)nc4ncccc34)ncn2)CC1 [compound 111]	< 0.1
CN(C)CC(=O)Nc1cc(Nc2cc(-c3cc(Cl)ccc3F)nc3ncccc23)ncn1 [compound 112]	< 0.1
CN1CCC(NC(=O)c2cnccc2Nc2cc(-c3cc(F)ccc3F)nc3ncccc23)CC1 [compound 113]	< 0.1
CC(C)(C)CC(=O)Nc1cc(Nc2cc(-c3ccccc3F)nc3ncccc23)ncn1 [compound 114]	< 0.1
CN1CCC(C(=O)Nc2cc(Nc3cc(-c4ccccc4F)nc4ncccc34)ncn2)CC1 [compound 115]	< 0.1
COC(=O)c1cc(Nc2cc(-c3cc(F)ccc3F)nc3ncccc23)ccn1 [compound 116]	1 to 10
CN1CCC(C(=O)Nc2cc(Nc3cc(-c4cc(F)ccc4F)nc4ncccc34)ncn2)CC1 [compound 117]	< 0.1
CNC(=O)c1cc(Nc2cc(-c3cc(F)ccc3F)nc3ncccc23)ccn1 [compound 118]	0.1 to 1
